Experimental data as given in patent US8258177B2, “4-((phenoxyalkyl)thio)-phenoxyacetic acids and analogs” (Janssen Pharmaceutica, N.V., priority 2003, dated 2012).
Where “and” joins values, the source holds several entries; their conditions need not be identical. Equal values may be shown once.

Target: T1, PPAR delta (Homo sapiens, UniProt Q03181)
T1 sequence (Q03181 211-441 limits assumed): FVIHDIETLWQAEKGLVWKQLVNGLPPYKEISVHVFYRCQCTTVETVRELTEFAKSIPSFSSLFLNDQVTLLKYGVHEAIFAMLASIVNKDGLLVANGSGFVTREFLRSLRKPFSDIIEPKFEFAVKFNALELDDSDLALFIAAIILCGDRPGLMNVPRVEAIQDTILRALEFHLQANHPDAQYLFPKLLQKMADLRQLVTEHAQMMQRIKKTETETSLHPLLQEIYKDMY
Assay: Transfection assay for PPAR receptors (PPAR-Gal4 / Gal4-Luciferase reporter in HEK293 cells)
Format: cell-based
Conditions: HEK293 cells co-transfected with PPAR-Gal4 receptor and Gal4-Luciferase reporter; 24 hours; multiple values = multiple measurements; read-out: EC50 (PPAR delta)
Procedure: Transfection Assay Method for PPAR Receptors
HEK293 cells were grown in DMEM/F-12 Media supplemented with 10% FBS and glutamine (GIBCOBRL). The cells were co-transfected with DNA for PPAR-Gal4 (PPARα, γ or δ) receptor and Gal4-Luciferase Reporter using the DMRIE-C Reagent. On the following day, the medium was replaced with 5% Charcoal treated FBS growth medium. After six hours, cells were trypsinized and seeded at a density of 50,000 cell/well into 96 well plates and incubated overnight at 37° C. in a 5% CO2 incubator. Cells were then treated with test compounds or vehicle and incubated for 24 hours at 37° C. in a 5% CO2 incubator. Luciferase activity was assayed using the Steady-Glo Luciferase Assay Kit from Promega. […] Steady-Glo Luciferase Assay Kit was purchased from Promega Part# E254B.

Row | SMILES | EC50
1 | C=C(COc1ccc(C(F)(F)F)cc1)CSc1ccc(CC(=O)O)cc1Cl [Compound 22, {3-Chloro-4-[2-(4-trifluoromethyl-phenoxymethyl)-allylsulfanyl]-phenyl}-acetic acid] | 28.9 nM and 68.3 nM
2 | C=C(COc1ccc(Cl)c(Cl)c1)CSc1ccc(OCC(=O)O)c(C)c1 [Compound 6, {4-[2-(3,4-Dichloro-phenoxymethyl)-allylsulfanyl]-2-methyl-phenoxy}-acetic acid] | 56.6 nM and 42.9 nM
3 | C=C(COc1ccccc1)CSc1ccc(OCC(=O)O)c(C)c1 [Compound 3, [2-Methyl-4-(2-phenoxymethyl-allylsulfanyl)-phenoxy]-acetic acid] | 711 nM
4 | C=C(COc1ccc(N(C)C)cc1)CSc1ccc(OCC(=O)O)c(C)c1 [Compound 10, {4-[2-(4-Dimethylamino-phenoxymethyl)-allylsulfanyl]-2-methyl-phenoxy}-acetic acid] | 238 nM
5 | C=C(COc1ccc(Cl)cc1Cl)CSc1ccc(OCC(=O)O)c(C)c1 [Compound 7, {4-[2-(2,4-Dichloro-phenoxymethyl)-allylsulfanyl]-2-methyl-phenoxy}-acetic acid] | 138 nM
6 | C=C(COc1ccc(OC)cc1)CSc1ccc(OCC(=O)O)c(C)c1 [Compound 9, {4-[2-(4-Methoxy-phenoxymethyl)-allylsulfanyl]-2-methyl-phenoxy}-acetic acid] | 216 nM
7 | Cc1cc(SCC(=Cc2cccc3ccccc23)COc2ccc(C(F)(F)F)cc2)ccc1OCC(=O)O [Compound 19, {2-Methyl-4-[3-naphthalen-1-yl-2-(4-trifluoromethyl-phenoxymethyl)-allylsulfanyl]-phenoxy}-acetic acid] | 67.7 nM and 49.7 nM

Second part, the compound after the results:

Row | EC50 | SMILES
8 | 29 nM and 27.8 nM | C=C(COc1ccc(OC(F)(F)F)cc1)CSc1ccc(OCC(=O)O)c(C)c1 [Compound 4, {2-Methyl-4-[2-(4-trifluoromethoxy-phenoxymethyl)-allylsulfanyl]-phenoxy}-acetic acid]
9 | 122 nM | CCC(O)(COc1ccc(C(F)(F)F)cc1)CSc1ccc(OCC(=O)O)c(C)c1 (centres unmarked) [Compound 28, {4-[2-Hydroxy-2-(4-trifluoromethyl-phenoxymethyl)butylsulfanyl]-2-methyl-phenoxy}-acetic acid]
10 | 249 nM | C=C(COc1ccc(C(F)(F)F)cc1)COc1ccc(OCC(=O)O)c(C)c1 [Compound 29]
11 | 32.1 nM and 38.7 nM | Cc1cc(SCC(=CC#N)COc2ccc(C(F)(F)F)cc2)ccc1OCC(=O)O [Compound 17, {4-[3-Cyano-2-(4-trifluoromethyl-phenoxymethyl)-allylsulfanyl]-2-methyl-phenoxy}-acetic acid]
12 | 45.1 nM and 48.3 nM | C=C(COc1ccc(C(F)(F)F)cc1)CSc1ccc(OCC(=O)O)c(Cl)c1 [Compound 11, {2-Chloro-4-[2-(4-trifluoromethyl-phenoxymethyl)-allylsulfanyl]-phenoxy}-acetic acid]
13 | 194 nM | C=C(CCSc1ccc(OCC(=O)O)c(C)c1)Oc1ccc(C(F)(F)F)cc1 [Compound 20, {2-Methyl-4-[3-(4-trifluoromethyl-phenoxy)-but-3-enylsulfanyl]phenoxy}-acetic acid]
14 | 147 nM | Cc1cc(SCC(F)(F)COc2ccc(C(F)(F)F)cc2)ccc1OCC(=O)O [Compound 25, {4-[2,2-Difluoro-3-(4-trifluoromethyl-phenoxy)-propylsulfanyl]-2-methyl-phenoxy}-acetic acid]
15 | 87.8 nM and 51.4 nM | Cc1cc(SCC(COc2ccc(C(F)(F)F)cc2)=C(F)F)ccc1OCC(=O)O [Compound 16, {4-[3,3-Difluoro-2-(4-trifluoromethyl-phenoxymethyl)-allylsulfanyl]-2-methyl-phenoxy}-acetic acid]
16 | 22.7 nM and 22.1 nM | CC(C)=C(COc1ccc(C(F)(F)F)cc1)CSc1ccc(OCC(=O)O)c(C)c1 [Compound 15, {2-Methyl-4-[3-methyl-2-(4-trifluoromethyl-phenoxymethyl)-but-2-enylsulfanyl]-phenoxy}-acetic acid]
17 | 79.2 nM and 51.8 nM | C=C(COc1ccc(Cl)cc1)CSc1ccc(OCC(=O)O)c(C)c1 [Compound 5, {4-[2-(4-Chloro-phenoxymethyl)-allylsulfanyl]-2-methyl-phenoxy}-acetic acid]
18 | > 1000 nM | C=C(CSc1ccc(OCC(=O)O)c(C)c1)Oc1ccc(C(F)(F)F)cc1 [Compound 21, {2-Methyl-4-[2-(4-trifluoromethyl-phenoxy)-allylsulfanyl]-phenoxy}-acetic acid]
19 | 119 nM | Cc1cc(SCC2(COc3ccc(C(F)(F)F)cc3)COC(C)(C)O2)ccc1OCC(=O)O (centres unmarked) [Compound 27, {4-[2,2-Dimethyl-4-(4-trifluoromethyl-phenoxymethyl)-[1,3]dioxolan-4-ylmethylsulfanyl]-2-methyl-phenoxy}-acetic acid]
20 | 9.7 nM and 7.4 nM | CCCC(CCC)(COc1ccc(C(F)(F)F)cc1)CSc1ccc(OCC(=O)O)c(C)c1 [Compound 24, {2-Methyl-4-[2-propyl-2-(4-trifluoromethyl-phenoxymethyl)-pentylsulfanyl]phenoxy}-acetic acid]

Same assay, conditions: value printed in running text after characterisation data; multiple values = multiple measurements; read-out: PPARdleta EC50

Row | SMILES | EC50
21 | C=C(COc1ccc(C(C)=O)c(O)c1CCC)CSc1ccc(OCC(=O)O)c(C)c1 [{4-[2-(4-acetyl-3-hydroxy-2-propyl-phenoxymethyl)-allylsulfanyl]-2-methyl-phenoxy}-acetic acid] | 13 nM and 18 nM
22 | C=C(COc1ccc(C(F)(F)F)cc1)CSc1ccc(Cl)cc1OCC(=O)O [[5-chloro-2-[[2-[[4-(trifluoromethyl)phenoxy]methyl]-2-propenyl]thio]phenoxy]-acetic acid] | > 3000 nM

Now from value to compound:

Row | EC50 | SMILES
23 | > 3000 nM | C=C(COc1ccc(C(F)(F)F)cn1)CSc1ccc(OCC(=O)O)c(C)c1 [[2-methyl-4-[[2-[[[5-(trifluoromethyl)-2-pyridinyl]oxy]methyl]-2-propenyl]thio]phenoxy]-acetic acid]
24 | > 3000 nM | C=C(COc1ccc(C(F)(F)F)cc1)C[S+]([O-])c1ccc(OCC(=O)O)c(C)c1 (centres unmarked) [[2-methyl-4-[[2-[[4-(trifluoromethyl)phenoxy]methyl]-2-propenyl]sulfinyl]phenoxy]-acetic acid]

System: differentiated THP-1 monocytes
Assay: not given
Conditions: cited from earlier work

Row | SMILES | ABCA1 mRNA expression | cholesterol efflux
25 | Cc1cc(SCc2sc(-c3ccc(C(F)(F)F)cc3)nc2C)ccc1OCC(=O)O [GW501516] | induced ABCA1 mRNA expression | enhanced cholesterol efflux
